From ChEMBL document CHEMBL4020799, “Design, synthesis of novel furan appended benzothiazepine derivatives and in vitro biological evaluation as potent VRV-PL-8a and H+/K+ ATPase inhibitors” (Bioorg Med Chem Lett, 2017) come the findings set out here.

By IC50 is commonly meant the concentration at which inhibition is half-maximal.

Structures are written as SMILES. Activity calls are given as the source filed them. No cut-off for these calls is given here.

The nature of assay [1]: Inhibition of hydrogen potassium ATPase in pig stomach mucosal membrane assessed as reduction in liberated inorganic phosphate level after 15 mins by colorimetric method. The format is cell membranes, Sus scrofa.
Assay [2] has as its target T1, Basic phospholipase A2 VRV-PL-VIIIa (Daboia russelii, UniProt P59071).
T1 sequence (P59071 whole entry): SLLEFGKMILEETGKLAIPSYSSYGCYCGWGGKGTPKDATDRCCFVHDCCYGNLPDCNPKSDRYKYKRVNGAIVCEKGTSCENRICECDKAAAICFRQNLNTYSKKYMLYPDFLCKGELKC
The experiment in a line: (§1) Inhibition of Vipera russelii sPLA2 pre-incubated for 5 mins before DMPC substrate addition and measured after 45 mins.

The target in assay [3] is T2, Basic phospholipase A2 VRV-PL-VIIIa (Daboia russelii) (UniProt P59071).
T2 sequence (whole entry): T1 sequence (P59071 whole entry)
Described as §1.

The target of assay [4] is T2, Basic phospholipase A2 VRV-PL-VIIIa (Daboia russelii). Kind of assay: Inhibition of Vipera russelii venom sPLA2-induced hemolytic activity in human erythrocytes assessed as reduction hemoglobin release in presence of egg yolk preincubated for 5 mins followed by erythrocyte addition by spectrophotometric analysis. It is filed as cell-based.
Assay [5] shares this target. The experiment in a line: Inhibition of Vipera russelii venom sPLA2 at 11.01 uM in presence of fixed concentration of calcium and 0 to 400 uM of DMPC substrate measured after 5 mins.
Assay [6] shares this target. The experiment in a line: Inhibition of Vipera russelii venom sPLA2 assessed as remaining enzyme activity level at 11.01 uM in presence of fixed concentration of calcium and 400 uM of DMPC substrate measured after 5 mins.
For assay [7] the target is unchanged. Kind of assay: Inhibition of Vipera russelii venom sPLA2 at 11.01 uM in presence of fixed concentrations of DMPC substrate and 0 to 12 uM of calcium measured after 5 mins.

As for `Fc1ccc(C2CC(c3ccco3)=Nc3ccccc3S2)cc1` (stereo not drawn), the IC50 in assay [1] stood at 5.1 µM; in assay [2], 25.2 µM. Further, the inhibition result in assay [3] was “Dose-dependent effect”.

With `COc1ccc(C2CC(c3ccco3)=Nc3ccccc3S2)cc1` (stereo not drawn), the IC50 in assay [1] was 1.99 µM; in assay [2], 11 µM. In addition, the inhibition entry in assay [4] and in assay [3] was “Dose-dependent effect” each time. For the same compound, the inhibition entry in assay [5] and in assay [7] was “Active” throughout. The Activity in assay [6] was 51%.

For `c1coc(C2=Nc3ccccc3SC(c3ccc4c(c3)OCO4)C2)c1` (stereo not drawn), the IC50 is 5.14 µM in assay [1] and 25.1 µM in assay [2]. In assay [3], the inhibition result is “Dose-dependent effect”.

In the case of `Clc1ccc(C2CC(c3ccco3)=Nc3ccccc3S2)cc1` (stereo not drawn), the IC50 in assay [1] is 5.28 µM; in assay [2], 19.3 µM. Moreover, the inhibition entry in assay [3] was “Dose-dependent effect”.

On to `O=[N+]([O-])c1ccc(C2CC(c3ccco3)=Nc3ccccc3S2)cc1` (stereo not drawn), for which the IC50 in assay [1] came to 3.73 µM; in assay [2], 56.9 µM. In assay [3], the inhibition result is “Dose-dependent effect”.

`COc1cc(C2CC(c3ccco3)=Nc3ccccc3S2)ccc1O` (stereo not drawn): the values for the IC50 in assay [1] and in assay [2] were 4.39 µM and 43.4 µM, respectively. For the same compound, the inhibition entry in assay [3] is “Dose-dependent effect”.

In the case of `Brc1ccc(C2CC(c3ccco3)=Nc3ccccc3S2)cc1` (stereo not drawn), the IC50 in assay [1] turned out to be 2.11 µM; in assay [2], 24.1 µM. In assay [3], the inhibition entry is “Dose-dependent effect”.

Regarding `c1ccc(C2CC(c3ccco3)=Nc3ccccc3S2)cc1` (stereo not drawn), the IC50 came out at 8.01 µM in assay [1] and 12 µM in assay [2]. The inhibition result in assay [3] is “Dose-dependent effect”.
